Experimental data: article PMC11245370, “3-Position Biaryl Endochin-like Quinolones with Enhanced Antimalarial Performance” (ACS Infectious Diseases, 2024)
Values joined by “and” are separate entries in the source; they are usually repeats but may differ in a detail not shown here. Equal values may be shown once.

Key:
[1] = target: human liver cytochrome bc1 complex (Homo sapiens, UniProt P00156); assay: Human cytochrome bc1 assay (liver mitochondrial preparation)
Protocol: All use of human tissue was approved by the OHSU IRB. Approximately 10 g of human liver tissue was obtained intraoperatively and placed in ice-cold PBS containing 5 mM glucose. [Note: The specimen was obtained from grossly normal tissue that was resected around the margins of a tumor as part of the standard surgical treatment for hepatic tumors.] Liver was homogenized using a razor blade followed by a Dounce homogenizer. HALT Protease Inhibitor Cocktail (Pierce) was added per the manufacturer’s instructions. A crude mitochondrial fraction was prepared by differential centrifugation as described in Renault et al.[35] The final pellet was resuspended in storage buffer (50 mM tricine, 100 mM KCl, 2 mM NaN, 2.0% dodecyl-beta-D-maltoside, 30% glycerol, pH 8.0). Aliquots of this mitochondrial preparation were frozen in a dry ice–ethanol bath and stored at −80 °C until use.
Two microliters of mitochondrial preparation was resuspended in the assay buffer (50 mM tricine, 100 mM KCl, 2 mM NaN3, 0.1% dodecyl-beta-D-maltoside). […] Antimycin A was dissolved in ethanol as a 1 mM stock. Decylubiquinone was reduced to decylubiquinol with an excess of NaBH4, and the excess NaBH4 was subsequently quenched with hydrochloric acid. […] The rate of the nonenzymatic reaction of cytochrome c and decylubiquinol was measured separately in the absence of mitochondrial preparation and found to be insignificant. […]

[2] = test system: P. yoelii blood-stage infection; assay: Single-dose cure of blood-stage murine malaria; assay type: in vivo, Plasmodium yoelii
Protocol: (§1) On day 5, a drop of blood was taken from the tail, and a blood smear was prepared, fixed with methanol, and stained with Giemsa. The operator then examined the stained smear microscopically to determine percent parasitemia. […] In this model, animals were inoculated exactly as for the 4 day test on day 0; however, drug was administered only on day 1, whereas smears were made on day 5 and again weekly thereafter for animals that remained aparasitemic. Animals that remained aparasitemic on day 30 were scored as cures.
The effectiveness of selected 3-biaryl ELQs and prodrugs was assessed vs the blood-stage infection for single-dose cures. Mice were infected iv with 3.5 × 10^4P. yoelii infected RBCs as described for the 4 day test above. Drug administration occurred on the day after inoculation (day 1). Test agents were dissolved in PEG-400 and administered ig once. On the fifth day, blood films were prepared, and % parasitemia was assessed. Animals remaining parasite-free for 30 days after drug administration were considered cured. The initial dosing range was 0.25, 0.5, 1, 3, and 10 mg/kg, including a control. Experiments were performed with four mice per group to ensure statistical accuracy. The reported parameter for these studies is the lowest single dose that provides a cure to all four animals in the group.

[3] = test system: P. yoelii sporozoites (liver stage); assay: Causal prophylaxis, sporozoite challenge in mice; details: 1.0 mg/kg single oral dose 1 h after 10,000 P. yoelii sporozoites iv; followed 30 days
Protocol: For this study, mice were inoculated with 10,000 P. yoelii sporozoites via tail vein injections, and drug was administered by gavage an hour later and only once. We monitored for the presence of blood-stage parasites as a measure of liver-stage infection.
Mice were inoculated with 10,000 sporozoites via tail vein injection of CF1 mice treated with or without drug (dissolved in PEG400) 1 h after inoculation. […] Additional monitoring for blood-stage infection was continued for a 30 day period to confirm true causal prophylaxis against P. yoelii challenge. […] Testing involved the use of four animals per group for statistical accuracy. […] A minimum of 5000 red blood cells were examined to establish blood-stage infection. Blood smears were fixed with methanol, stained with Giemsa, and viewed under oil immersion at 1000× magnification under standard light microscopy.

[4] = test system: P. yoelii blood-stage infection; details: mice
Protocol: as §1
The P. yoelii 4 day test monitors suppression of patent infection in female CF1 mice. The test began with the inoculation (iv) of parasitized erythrocytes (3.5 × 10^4P. yoelli) (from a donor animal) on the first day of the experiment (D0). […] Initially, the 3-biaryl-ELQs were tested at doses of 0.0025, 0.005, 0.01, 0.03, 0.1, 0.3, 1.0, and 10 mg/kg/day, including a vehicle-only (PEG400) control. After completion of drug treatment, a blood sample was collected (by pricking the tail vein) for determination of parasite burden beginning on the day after the final dose (D5). Percent parasitemia was assessed by direct microscopic analysis of Giemsa-stained blood smears. […] Animals with observable parasitemia following the experiment were euthanized; animals cleared of parasites from the bloodstream were observed daily with assessment of parasitemia performed weekly until day 30, at which point the animals were scored as cured of infection. […] Nonlinear regression analysis was used for objective determination of ED50’s and ED90’s from the accumulated data as well as the nonrecrudescence dose (NRD). The 4 day test protocol was reviewed and approved by the local IACUC board at the Portland VA Medical Center. Experiments were performed with four mice per group to ensure statistical accuracy.

[5] = oral gavage days 1-4, parasitemia day 5, prodrugs dosed on molar equivalency to parent

Row | Compound | EC50 [1] | blood stage in vivo efficacy, single dose cure ([2]; lowest single oral dose curing all four mice, day 30) | lowest fully protective single dose cure ([2]; single oral dose day 1, aparasitemic day 30, four mice, parent-drug equivalent) | liver stage in vivo, # mice protected/total [3] | blood stage in vivo efficacy, 4 day Peters test results, NRD (nonrecrudescence dose) ([4]; oral gavage days 1-4, followed to day 30) | blood stage in vivo efficacy, 4 day Peters test results, ED50 [4, 5] | blood stage in vivo efficacy, 4 day Peters test results, ED90 [4, 5]
1 | CCCCCC[C@H]1C(=O)O[C@H](C)[C@H](NC(=O)c2cccc(NC=O)c2O)C(=O)O[C@@H](C)[C@@H]1OC(=O)CC(C)C [Antimycin A, reference compound] | < 0.156 µM |  |  |  |  |  | 
2 | CCOC(=O)OCOc1c(-c2ccc(Oc3ccc(OC(F)(F)F)cc3)cc2)c(C)nc2cc(OC)c(Cl)cc12 [ELQ-331] |  | 3 mg/kg/day | 3 mg/kg | completely protective and 4/4 | 1.0 mg/kg/day | 0.02 mg/kg/day | 0.05 mg/kg/day
